# Tested on: patients with recurrent malignant glioma classified as WHO grade III or IV
# Assay: Phase 1 dose-escalation clinical trial: safety (TEAEs, DLTs, MTD);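 also: dosing continued until unacceptable toxicity, consent withdrawal, loss to follow-up or investigator/sponsor decision, with cohorts of 1-6 patients per dose level and MTD estimated by BLRM from cumulative DLT data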
# [1] = 480 mg daily (240 mg BID) (N=6), cutoff April 21, 2024
# [2] = 480 mg daily [240 mg BID] group, cutoff April 21, 2024
# [3] = N=23 (n=2), cutoff April 21, 2023
# [4] = N=39 (n=2), cutoff April 21, 2024
# [5] = N=39 (n=3), cutoff April 21, 2024
# [6] = Total (N=23), cutoff April 21, 2023
# [7] = Total (N=39), cutoff April 21, 2024
# Method: Administration to each subject was continued until unacceptable toxicity occurred, consent was withdrawn, the subject was lost to follow-up, or discontinuation was determined by the investigator and/or the sponsor.
# The present study consists of two parts: a dose-escalation part (Part 1) and a dose-expansion part (Part 2).
# Each dose level was evaluated in cohorts of 1-6 patients. In all cohorts, administration of the investigational drug to the second and subsequent patients was permitted after completion of all safety assessments on Day 8 of Cycle 1 in the first patient. […] At dose level 2 in the dose-escalation part, at least three patients were required to be evaluated before escalation to a higher dose level. After completion of each cohort, the probability of observing a DLT at each dose level in the present study was updated using the BLRM based on cumulative data from the preceding cohorts, and the MTD was estimated.
smiles,measurement,setting,value
"CC1(C)Oc2cc(Cl)ccc2[C@@H]2OCC3(CCN(CCn4ccnc4)CC3)C[C@H]21 [Compound 1, (4'aR,10'bR)-8'-chloro-1-[2-(1H-imidazol-1-yl)ethyl]-5',5'-dimethyl-4'a,10'b-dihydro-2'H,4'H,5'H-spiro[piperidine-4,3'-pyrano[3,2-c][1]benzopyran] diphosphate]",TEAE: alopecia,[1],1 (16.7) n (%)
same,TEAE: constipation,[1],1 (16.7) n (%)
same,TEAE: decreased appetite,[1],1 (16.7) n (%)
same,TEAE: decreased lymphocyte count,[1],1 (16.7) n (%)
same,TEAE: decreased neutrophil count,[1],0 n (%)
same,TEAE: decreased platelet count,[1],0 n (%)
same,TEAE: diarrhea,[1],0 n (%)
same,TEAE: dry skin,[1],3 (50.0) n (%)
same,TEAE: fall,[1],3 (50.0) n (%)
same,TEAE: fatigue,[1],2 (33.3) n (%)
same,TEAE: headache,[1],0 n (%)
same,TEAE: hypertrigly-ceridaemia,[1],0 n (%)
same,TEAE: hyponatremia,[1],1 (16.7) n (%)
same,TEAE: increase in blood cholesterol,[1],1 (16.7) n (%)
same,TEAE: increased alanine aminotransferase,[1],5 (83.3) n (%)
same,TEAE: increased aspartate aminotransferase,[1],2 (33.3) n (%)
same,TEAE: maculopapular rash,[1],3 (50.0) n (%)
same,TEAE: nausea,[1],2 (33.3) n (%)
same,TEAE: seizure,[1],1 (16.7) n (%)
same,TEAE: vomiting,[1],3 (50.0) n (%)
same,patients with DLTs (Grade 3 maculopapular rash; Grade 2 nausea and vomiting),"480 mg daily (240 mg BID), cutoff April 21, 2024",two
same,serious TEAE: confusional state,[2],one
same,serious TEAE: fatigue,[2],one
same,patients with serious TEAEs,"N=23 (6 patients), cutoff April 21, 2023",26.1%
same,patients with Grade ≥3 TEAEs,"N=23 (13 patients), cutoff April 21, 2023",56.5%
same,patients with TEAEs considered to be related to the study drug,"N=23 (16 patients), cutoff April 21, 2023",69.6%
same,Grade ≥3 TEAE: aphasia,[3],8.7%
same,Grade ≥3 TEAE: decreased lymphocyte count,[3],8.7%
same,Grade ≥3 TEAE: decreased white blood cell count,[3],8.7%
same,Grade ≥3 TEAE: headache,[3],8.7%
same,Grade ≥3 TEAE: decreased neutrophil count,"N=23 (n=3), cutoff April 21, 2023",13.0%
same,Grade ≥3 TEAE: seizure,"N=23 (n=4), cutoff April 21, 2023",17.4%
same,patients who died during the study due to TEAEs (assessed as not related),"N=23, 40 mg and 240 mg groups, cutoff April 21, 2023",two
same,Grade ≥3 TEAE considered related to Compound 1 (dry skin),"N=23, cutoff April 21, 2023",one
same,relatedness of serious TEAEs to Compound 1,"N=23, cutoff April 21, 2023",None of these serious TEAEs were considered to be related to Compound 1
same,patients with serious TEAEs,"N=39 (9 patients), cutoff April 21, 2024",23.1%
same,patients with Grade ≥3 TEAEs,"N=39 (23 patients), cutoff April 21, 2024",59.0%
same,patients with TEAEs considered to be related to the study drug,"N=39 (30 patients), cutoff April 21, 2024",76.9%
same,Grade ≥3 TEAE considered related to Compound 1: fatigue,"N=39 (n=1), cutoff April 21, 2024",2.6%
same,Grade ≥3 TEAE considered related to Compound 1: dry skin,[4],5.1%
same,Grade ≥3 TEAE considered related to Compound 1: maculopapular rash,[4],5.1%
same,Grade ≥3 TEAE: decreased white blood cell count,[4],5.1%
same,Grade ≥3 TEAE: dry skin,[4],5.1%
same,Grade ≥3 TEAE: increased alanine aminotransferase,[4],5.1%
same,Grade ≥3 TEAE: maculopapular rash,[4],5.1%
same,Grade ≥3 TEAE: aphasia,[5],7.7%
same,Grade ≥3 TEAE: decreased lymphocyte count,[5],7.7%
same,Grade ≥3 TEAE: decreased neutrophil count,[5],7.7%
same,Grade ≥3 TEAE: headache,[5],7.7%
same,Grade ≥3 TEAE: fatigue,"N=39 (n=4), cutoff April 21, 2024",10.3%
same,Grade ≥3 TEAE: seizure,"N=39 (n=5), cutoff April 21, 2024",12.8%
same,patients who died during the study due to TEAEs,"N=39, 40 mg QD and 240 mg QD groups, cutoff April 21, 2024",Two
same,serious TEAEs considered to be related to Compound 1,"N=39, cutoff April 21, 2024",nine and None of these serious TEAEs were considered to be related to Compound 1
same,Number of patients with any TEAE,[6],23 (100) n (%)
same,TEAE: constipation,[6],7 (30.4) n (%)
same,TEAE: decreased appetite,[6],3 (13.0) n (%)
same,TEAE: decreased lymphocyte count,[6],5 (21.7) n (%)
same,TEAE: decreased neutrophil count,[6],6 (26.1) n (%)
same,TEAE: decreased platelet count,[6],4 (17.4) n (%)
same,TEAE: decreased white blood cell count,[6],3 (13.0) n (%)
same,TEAE: dry skin,[6],5 (21.7) n (%)
same,TEAE: fall,[6],3 (13.0) n (%)
same,TEAE: headache,[6],7 (30.4) n (%)
same,TEAE: hypertrigly-ceridaemia,[6],4 (17.4) n (%)
same,TEAE: hyponatremia,[6],3 (13.0) n (%)
same,TEAE: increased alanine aminotransferase,[6],12 (52.2) n (%)
same,TEAE: increased aspartate aminotransferase,[6],6 (26.1) n (%)
same,TEAE: nausea,[6],11 (47.8) n (%)
same,TEAE: seizure,[6],5 (21.7) n (%)
same,TEAE: vomiting,[6],6 (26.1) n (%)
same,Number of Patients with Any TEAE,[7],39 (100) n (%)
same,TEAE: Confusional state,[7],4 (10.3) n (%)
same,TEAE: Gait disturbance,[7],4 (10.3) n (%)
same,TEAE: Gastrointestinal disorder,[7],4 (10.3) n (%)
same,TEAE: Hiccups,[7],4 (10.3) n (%)
same,TEAE: Tremor,[7],4 (10.3) n (%)
same,TEAE: alopecia,[7],6 (15.4) n (%)
same,TEAE: constipation,[7],11 (28.2) n (%)
same,TEAE: decreased appetite,[7],6 (15.4) n (%)
same,TEAE: decreased lymphocyte count,[7],6 (15.4) n (%)
same,TEAE: decreased neutrophil count,[7],6 (15.4) n (%)
same,TEAE: decreased platelet count,[7],5 (12.8) n (%)
same,TEAE: diarrhea,[7],5 (12.8) n (%)
same,TEAE: dry skin,[7],10 (25.6) n (%)
same,TEAE: fall,[7],9 (23.1) n (%)
same,TEAE: fatigue,[7],7 (17.9) n (%)
same,TEAE: headache,[7],9 (23.1) n (%)
same,TEAE: hypertrigly-ceridaemia,[7],5 (12.8) n (%)
same,TEAE: hyponatremia,[7],5 (12.8) n (%)
same,TEAE: increase in blood cholesterol,[7],4 (10.3) n (%)
same,TEAE: increased alanine aminotransferase,[7],25 (64.1) n (%)
same,TEAE: increased aspartate aminotransferase,[7],13 (33.3) n (%)
same,TEAE: maculopapular rash,[7],4 (10.3) n (%)
same,TEAE: nausea,[7],21 (53.8) n (%)
same,TEAE: seizure,[7],7 (17.9) n (%)
same,TEAE: vomiting,[7],14 (35.9) n (%)
same,"study drug related Grade 3 AEs (dry skin, and rash)","as of September 2023, n=33",2
same,study drug-related SAEs,"as of September 2023, n=33",no study drug-related SAEs reported
same,dose-limiting toxicities (DLTs),"from 20 mg QD to 240 mg QD, cutoff April 21, 2024",No dose-limiting toxicities (DLTs) were observed
same,dose limiting toxicity,"from 20 mg up to 240 mg, as of September 2023",No dose limiting toxicity reported
same,serious TEAE: seizure,"one 20 mg QD, one 120 mg QD, two 180 mg QD, cutoff April 21, 2024",four

# Reference: patent EP4806435A1, “DIHYDROCHROMENE-DERIVATIVE-CONTAINING THERAPEUTIC AGENT FOR CANCER” (Sumitomo Pharma Co., Ltd., priority 2023, dated 2025)
